# Laboratory results as given in patent publication US20030134859A1 (SANKYO COMPANY, LIMITED, priority 2000, published 2003).
# Assays:
# [1] = test system: Mouse preadipocyte strain 3T3-L1; test: Inhibition of differentiation as an indication of acetic acid uptake; type: cell-based; conditions: control (0.01% dimethylsulfoxide) = 100%; for activity at 0.1 µM: Mus musculus, 3T3-L1, 0.1 μM test substance, read-out: Rate of Uptake (%) of [2-14C] acetic acid
# Summary of the method: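 Confluent 3T3-L1 cells induced to differentiate for 4 days (insulin, IBMX, dexamethasone, 5% FBS) with test compound at 0.1 μM final or 0.01% DMSO, then 2 days in insulin maintenance medium, at 37 °C, 10% CO2. [2-14C]acetic acid uptake over 1 hr counted by scintillation; expressed as % of DMSO control.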
# [2] = test system: Rat white adipocytes; test: Stimulation of differentiation of the adipocytes (Oil Red O); type: cell-based; conditions: Rattus norvegicus, Adipocyte, 120 h, 100 nM test compound; 5 days; Oil Red O ABS550; control = 100%, blank = 0%; Table 7; read-out: Rate of Differentiation (%)
# Summary of the method: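 Rat white adipocytes, 5,000 cells/well, cultured 5 days in differentiation-inducing medium with test compound at final 100 nM (0.1% DMSO). Cells fixed, stained with Oil Red O, dye extracted in DMSO and read at 550 nm; differentiation rate expressed relative to vehicle control (100%) and cell-free blank (0%).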
# [3] = test system: TNF-α production; test: Inhibitory activity against cytokine (TNF-α) production in LPS-stimulated RAW264.7 cells; type: cell-based, mouse; conditions: Mus musculus, RAW264.7, 15 h, 1 μM test compound, LPS 10 ng/mL
# Method: The mouse monocyte/macrophage cell line, RAW264.7 (ATCC TIB71) was purchased from Dainippon Pharmaceutical Co., Ltd. The RAW264.7 cells were cultured in a CO2 incubator (37° C., 95% of humidity, 5% of CO2) by using the Dulbecco's modified Eagle's medium (DMEM medium; GIBCO, Cat. No. 11995-040) containing bovine fetal serum (the final concentration: 10% (v/v), MOREGATE, lot No. 474030), penicillin G (the final concentration: 50 units/mL […], GIBCO) and streptomycin (the final concentration: 20 μg/mL, GIBCO).
# Sixty (60) μL of the RAW264.7 cell suspension (83,000 cells/mL) were plated into each well of a 96-well microplate (5,000 cells/well). After the cells were cultured for 4 hr in a CO2 incubator, 40 μL of DMEM medium containing 25 ng/mL of LPS (Sigma-Aldrich Japan K. K.) were added into each well (final concentration of LPS: 10 ng/mL). The test compound dissolved in DMSO at a concentration of 1 mM was diluted with DMEM medium by 20 times. Then 2 μL/well of the diluted solution were added to wells containing the plated cells (final concentration of the test compound: 1 μM). As the control, 2 μL/well of DMSO diluted with DMEM medium by 20 times were added to wells containing the plated cells either with LPS (final concentration: 10 ng/mL) or without LPS. After these cells were cultured in a CO2 incubator for 15 hr, the supernatant of the medium was recovered. The amount of mTNF-α in the medium supernatant was determined with a mouse TNF-α ELISA kit Quantikine M (R&D System), according to the experiment protocol attached with the kit.
# The inhibitory activity of the test compound against TNF-α production was calculated according to the following equation.
# A: The amount of TNF-α in the presence of test compound
# B: The amount of TNF-α in the control without LPS
# C: The amount of TNF-α in the control with 10 ng/mL of LPS
# Inhibitory Activity of the Test Compound against TNF-α Production (%)=100−(A−B)/(C−B)×100
# [4] = target: T1, human PPAR γ 2 (Homo sapiens, UniProt P37231); test: PPAR γ transcriptional activity, luciferase reporter, test compound alone; type: cell-based; conditions: concentration indicating Emax/2, MG63 cells transfected with pSG5-hPPARg and pGV-P2-PPRE, 24 hr
# T1 construct: expressed in transfected cells; host or cells: human osteosarcoma MG63, transiently co-transfected with pSG5-hPPARg and the reporter pGV-P2-PPRE
# T1 sequence (P37231 1-505): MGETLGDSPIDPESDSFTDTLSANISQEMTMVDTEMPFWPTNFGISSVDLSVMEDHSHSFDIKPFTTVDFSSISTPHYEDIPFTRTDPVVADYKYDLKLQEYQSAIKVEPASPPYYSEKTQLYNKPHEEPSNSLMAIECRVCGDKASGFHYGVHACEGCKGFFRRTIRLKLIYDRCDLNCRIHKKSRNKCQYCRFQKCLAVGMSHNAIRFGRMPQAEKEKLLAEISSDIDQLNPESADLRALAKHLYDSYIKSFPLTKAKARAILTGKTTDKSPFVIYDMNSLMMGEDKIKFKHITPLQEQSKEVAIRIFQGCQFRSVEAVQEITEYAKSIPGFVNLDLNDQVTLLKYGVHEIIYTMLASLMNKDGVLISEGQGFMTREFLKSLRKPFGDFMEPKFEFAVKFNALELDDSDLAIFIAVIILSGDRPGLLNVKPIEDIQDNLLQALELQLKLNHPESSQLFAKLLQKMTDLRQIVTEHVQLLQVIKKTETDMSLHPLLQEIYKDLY
# Method: The primers of the polymerase chain reaction (hereinafter “PCR”) were designed according to the gene sequence of human PPAR γ 2 (GenBANK accession No. D83233). In order to insert the genes into the BamHI site of the plasmid pSG5 ([…] CLONING SYSTEMS), Bgl II sites were added upstream and downstream of the genes encoding human PPAR γ 2 protein. For this, 2 kinds of polynucleotides shown in the sequence numbers 1 and 2 in the sequence table described below (hereinafter “S1” and “AS1”, respectively) were used as PCR primers.
# In order to determine transcriptional activity via PPAR γ, 2 kinds of polynucleotides represented in sequence numbers 3 and 4 in the sequence table described below (hereinafter “S2” and “AS2”, respectively) were used for construction of the reporter plasmid having PPAR responsive element. The DNA fragment inserted was designed based on the gene sequence in the promoter region of rat acylCo-A oxidase (J. D. Tugwood, EMBO J., 11 (2), pp433-439 (1992)). For insertion of the DNA fragment into the reporter plasmid pGV-P2 (TOYO INK MFG CO., LTD), a NheI site and an XhoI site were added to the S2 and AS2, respectively.
# Using cDNA library (Clontech) derived from human adipose tissue as a template, DNA oligomers S1 and AS1 that were synthesized in the procedure 1 as primers and Ex-Taq™ (TAKARA BIO INC.) as a thermostable DNA polymerase-PCR was carried out. As a result of the PCR, the c.a. 1500 bps DNA fragments were amplified. Each cycle consisted of incubation at 94° C. for 1 min for denaturation of the template, then at 55° C. for 30 sec for annealing of DNA oligomers the PCR primer, and then at 72° C. for 30 sec for extension of the chain. The obtained DNA fragments with approximately 1500 base pairs were digested at the Bgl II sites and were inserted into BamHI sites of pSG5. Thus a human PPAR γ expression plasmid named pSG5-hPPAR g was obtained. The nucleotide sequence of the inserted DNA fragment was confirmed to be identical sequence to the human PPAR γ 2 reported by the dideoxy method.
# Vector pGV-P2 digestion products was prepared by digestion using the restriction enzymes, NheI and XhoI, and purified by 1.0% agarose-gel electrophoresis. The DNA oligomers, S2 and AS2 obtained in Procedure 2, were mixed together and were incubated in a hot bath at 94° C. for 1 min. After the annealing was partially broken, they were further incubated at 25° C. for 1 hr. Thus double-stranded DNA with annealing of S2 and AS2 was formed. Then, the terminus of the double-stranded DNA with annealing of S2 and AS2 was phosphorylated with DNA polynucleotide kinase (TOYOBO CO., LTD). After that, it was ligated to the pGV-P2 digestion products which were prepared previously using the NheI site and XhoI site. Thus the reporter plasmid pGV-P2-PPRE was obtained.
# Using the plasmid obtained by the procedures 3 and 4, transformation of Escherichia coli HB-101 strain was carried out by conventional methods. HB-101 strain having the plasmid was incubated in L-broth medium (containing 10 g of trypton (Difco), 5 g of yeast extract (Difco), 5 g of sodium chloride in 1 L of aqueous solution) containing 100 μg/ml of ampicillin at 37° C. for 17 hrs. Then, each plasmid was purified by the alkaline-SDS method and employed for the gene transfection to mammalian cells. After mixing the pSG5-hPPARg, PGV-P2-PPRE and LipofectAMINE reagent (GIBCO BRL), the human osteosarcoma MG63 was transiently transfected. Then the cells were recovered. The recovered cells were plated on a 96-well plate so as to be 30,000 cells/well and cultured in a CO2 incubator (NAPCO) at 37° C. for 24 hr under the condition of 5% CO2, 95%-RH.
# Various concentrations of the test compound alone were added to culturing medium of the cells prepared in the Procedure 5. After 24 hr of culturing, LT2.0 (TOYO INK MFG CO., LTD), a luciferase substrate, was added to the medium free culture plate. […]
# [5] = test system: Rat white adipocytes; test: Inhibition of the differentiation of adipocytes (Oil Red O); type: cell-based; conditions: Rattus norvegicus, Adipocyte, 120 h, 100 nM test compound; 5 days; Oil Red O ABS550; control = 100%, blank = 0%; Table 3; read-out: Rate of Differentiation (%)
# Summary of the method: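 Rat white preadipocytes, 5,000 cells/well, given differentiation medium with compound at 100 nM final (0.1% DMSO) for 5 days at 37 °C. Lipid stained with Oil Red O, eluted in DMSO, read at 550 nm; differentiation % relative to DMSO control (100%) and blank (0%).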
SMILES,activity at 0.1 µM [1] [%],activity at 0.1 µM [2] [%],inhibition at 1 µM [3] [%],EC50 [4] [nM],Rate of Uptake (%) of [2-14C] acetic acid ([1]; 0.1 μM test substance) [%],activity at 0.1 µM [5] [%]
"CCc1ccc(NC(=O)c2cc([N+](=O)[O-])ccc2Cl)cc1 [Example 12, N-(4-Ethylphenyl)-(2-chloro-5-nitrophenyl)carboxamide]",66.4,120,21.8,,,
"CCc1ccccc1NC(=O)c1cc([N+](=O)[O-])ccc1Cl [Example 13, N-(2-Ethylphenyl)-(2-chloro-5-nitrophenyl)carboxamide]",93,127,16.2,,,
"O=C(Nc1nc2ccc(Cl)cc2s1)c1cc([N+](=O)[O-])ccc1Cl [Example 68, N-(6-Chlorobenzothiazol-2-yl)-(2-chloro-5-nitrophenyl)carboxamide]",67.9,116,15.2,,,
"Cc1cnc(NC(=O)c2cc([N+](=O)[O-])ccc2Cl)c(C)c1 [Example 74, N-(3,5-Dimethylpyriridin-2-yl)-(2-chloro-5-nitrophenyl)carboxamide]",,,,5.1,70.4,
"COC(=O)c1cscc1NC(=O)c1cc([N+](=O)[O-])ccc1Cl [Example 76, N-(4-Methoxycarbonylthiophen-3-yl)-(2-chloro-5-nitrophenyl)carboxamide]",54.3,,,120,,
"CCOC(=O)c1c(NC(=O)c2cc([N+](=O)[O-])ccc2Cl)sc2c1CCCC2 [Example 79, N-[3-Carboethoxy-4,5,6,7-tetrahydrobenzo[b]thiophen-2-yl]-(2-chloro-5-nitrophenyl)carboxamide]",41.5,,,68,,
O=C(Nc1ccc(S(=O)(=O)Nc2ccc3cn[nH]c3c2)cc1)c1cc([N+](=O)[O-])ccc1Cl [Example 103],72.1,,,8.8,,
"CCCCNC(=O)NS(=O)(=O)c1ccc(NC(=O)c2cc([N+](=O)[O-])ccc2Cl)cc1 [Example 107, N-[4-(Butylaminocarbonylaminosulfonyl)phenyl]-(2-chloro-5-nitrophenyl)carboxamide]",71.3,,,88,,
"O=C(Nc1ccc(NC(=O)c2cc([N+](=O)[O-])ccc2Cl)cc1)c1cccnc1 [Example 123, N-[4-(Pyridin-3-ylcarbonylamino)phenyl]-(2-chloro-5-nitrophenyl)carboxamide]",96.2,148,15.1,,,
"CC(=O)Oc1ccc(-c2ccc(NC(=O)c3cc([N+](=O)[O-])ccc3Cl)cc2)cc1 [Example 134, N-[4-(4-Acetoxyphenyl)phenyl]-(2-chloro-5-nitrophenyl)carboxamide]",,120,16.4,,,
"O=C(Nc1ccc(O)cc1)c1cc([N+](=O)[O-])ccc1Cl [Example 193, N-(4-Hydroxyphenyl)-(2-chloro-5-nitrophenyl)carboxamide]",,,,31,,62.4
"O=C(NCc1ccccc1)Nc1ccc(-c2ccc(NC(=O)c3cc([N+](=O)[O-])ccc3Cl)cc2)cc1 [Example 248, N-[4-[4-(Benzylaminocarbonylamino)phenyl]phenyl]-(2-chloro-5-nitrophenyl)carboxamide]",,,19.1,,,64.4
"Nc1cccc(-c2csc(NC(=O)c3cc([N+](=O)[O-])ccc3Cl)n2)c1 [Example 253, N-[4-(3-Aminophenyl)thiazol-2-yl]-(2-chloro-5-nitrophenyl)carboxamide]",,,29,,,55.7
